Some test systems named below: SN12C renal; RPMI-8226 leukemia; A549 NSCLC; U251 CNS; CAKI-1 renal; HL-60(TB) leukemia; NCI-H522 lung; SR leukemia; UACC-257 melanoma; 786-0 renal; NCI-H23 lung; IGROV1 ovarian; OVCAR-8 ovarian; MDA-MB-231 breast; SF-295 CNS; MOLT-4 leukemia; OVCAR-3 ovarian.
Assay in all cases: inhibition of tumour cell growth, NCI panel, 48 h

The values that follow come from PubChem BioAssay (NCI).

The structures appear in SMILES notation.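 Each compound was tested at five concentrations against cells in 96-well plates for 48 hours. TGI: concentration producing complete growth inhibition.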

As for `N#Cc1c(=O)c2ccccc2n2ccccc12`, the TGI in the experiment with SN12C renal, with RPMI-8226 leukemia, with A549 NSCLC, in the experiment with U251 CNS, in the experiment on CAKI-1 renal and in the experiment with HL-60(TB) leukemia was greater than 100 µM in each case. For the same molecule, the TGI with NCI-H522 lung, in the experiment on SR leukemia, with UACC-257 melanoma, in the experiment with 786-0 renal, in the experiment with NCI-H23 lung and in the experiment on IGROV1 ovarian was greater than 100 µM each time. In addition, the TGI with OVCAR-8 ovarian and in the experiment on MDA-MB-231 breast was greater than 100 µM in each case.

With `N=c1oc2ccccc2cc1-c1nc2ccccc2[nH]1`, the TGI with SN12C renal, in the experiment on RPMI-8226 leukemia, in the experiment with A549 NSCLC, in the experiment with SF-295 CNS, in the experiment with U251 CNS and in the experiment on CAKI-1 renal was greater than 100 µM throughout. Also, the TGI is 87 µM with HL-60(TB) leukemia; 4.57 µM in the experiment with NCI-H522 lung; greater than 100 µM in the experiment on MOLT-4 leukemia; greater than 100 µM in the experiment on SR leukemia; greater than 100 µM with UACC-257 melanoma; 28.8 µM in the experiment with 786-0 renal. For the same molecule, the values for the TGI with IGROV1 ovarian, in the experiment on OVCAR-8 ovarian and in the experiment with MDA-MB-231 breast were greater than 100 µM, greater than 100 µM and 57.6 µM, respectively.

On to `CC1(C)OCC(C2OC3OC(C)(C)OC3C2c2ccccc2)O1` (centres undefined), for which the TGI was greater than 100 µM in the experiment on SN12C renal; greater than 100 µM in the experiment on RPMI-8226 leukemia; greater than 100 µM with A549 NSCLC; greater than 100 µM in the experiment with SF-295 CNS; greater than 100 µM in the experiment with U251 CNS; 50 µM in the experiment on HL-60(TB) leukemia. In addition, the TGI in the experiment with NCI-H522 lung is greater than 100 µM; in the experiment with MOLT-4 leukemia, greater than 100 µM; in the experiment on SR leukemia, greater than 100 µM; in the experiment with UACC-257 melanoma, greater than 100 µM; in the experiment with 786-0 renal, greater than 100 µM; in the experiment with NCI-H23 lung, 97.2 µM. The TGI in the experiment with IGROV1 ovarian was greater than 100 µM; in the experiment with OVCAR-3 ovarian it was 91.7 µM; in the experiment on OVCAR-8 ovarian it was greater than 100 µM; in the experiment on MDA-MB-231 breast, greater than 100 µM.

Consider `CCC(=O)N/S(=N/S(=O)(=O)c1ccccc1)C(Cl)(Cl)Cl` (centres undefined), for which the TGI in the experiment on SN12C renal, in the experiment with RPMI-8226 leukemia, in the experiment with A549 NSCLC, with SF-295 CNS, in the experiment on U251 CNS and in the experiment on HL-60(TB) leukemia was greater than 100 µM in each case. The TGI in the experiment on MOLT-4 leukemia, with SR leukemia, in the experiment on UACC-257 melanoma, in the experiment on 786-0 renal, in the experiment with NCI-H23 lung and in the experiment with IGROV1 ovarian was greater than 100 µM each time. The TGI in the experiment with OVCAR-3 ovarian, in the experiment on OVCAR-8 ovarian and in the experiment on MDA-MB-231 breast was greater than 100 µM each time.

`O=C(N=Nc1ccc(Cl)cc1Cl)NNc1ccc(Cl)cc1Cl`: the TGI in the experiment with SN12C renal is 37.4 µM; in the experiment with RPMI-8226 leukemia, 61.9 µM; with A549 NSCLC it was 46.7 µM; in the experiment on U251 CNS, 36.2 µM; in the experiment on CAKI-1 renal, 52.9 µM; in the experiment with HL-60(TB) leukemia, 49.8 µM. Moreover, the TGI with NCI-H522 lung came out at 41.9 µM; in the experiment on MOLT-4 leukemia it was 50.5 µM; with SR leukemia it was 78.3 µM; in the experiment with UACC-257 melanoma, 43.1 µM; in the experiment with 786-0 renal, 32.6 µM; in the experiment on NCI-H23 lung it was 53 µM. In addition, the TGI came to 61.4 µM in the experiment with IGROV1 ovarian, 33.6 µM in the experiment on OVCAR-3 ovarian, 37.6 µM in the experiment on OVCAR-8 ovarian and 57.8 µM in the experiment on MDA-MB-231 breast.

On to `O=C1/C(=C\c2ccc(Br)cc2)CCCc2ccccc21`, for which the TGI with SN12C renal is 32.1 µM; in the experiment on RPMI-8226 leukemia, 48.8 µM; in the experiment with A549 NSCLC, greater than 100 µM; in the experiment on SF-295 CNS, 52.9 µM; in the experiment on U251 CNS, 31.2 µM; in the experiment on CAKI-1 renal it was 68.7 µM. The TGI in the experiment on HL-60(TB) leukemia came out at 69 µM; with MOLT-4 leukemia it was 58.5 µM; in the experiment on SR leukemia, 58 µM; in the experiment with UACC-257 melanoma it was 39.6 µM; in the experiment on 786-0 renal, 27.8 µM; in the experiment with NCI-H23 lung it was 36.4 µM. For the same molecule, the TGI with IGROV1 ovarian amounted to 34.4 µM; in the experiment with OVCAR-3 ovarian, 65.1 µM; with OVCAR-8 ovarian, 28.2 µM; in the experiment with MDA-MB-231 breast, 42 µM.

As for `O=C(O)c1nc2ccc(C(F)(F)F)cc2nc1Nc1ccc(Cl)c(Cl)c1`, the TGI in the experiment with SN12C renal was 22.1 µM; in the experiment with SF-295 CNS, 17 µM; in the experiment on U251 CNS, 14.7 µM; in the experiment with CAKI-1 renal, 30.6 µM; with HL-60(TB) leukemia it was 21.9 µM; with NCI-H522 lung it was 15.2 µM. In addition, the TGI is 17.3 µM with MOLT-4 leukemia; 14 µM in the experiment on SR leukemia; 56.4 µM in the experiment on UACC-257 melanoma; 23.7 µM in the experiment on 786-0 renal; 19 µM in the experiment on NCI-H23 lung; 34.7 µM in the experiment on IGROV1 ovarian. The TGI with OVCAR-3 ovarian stood at 23.9 µM; in the experiment on OVCAR-8 ovarian it was 17.6 µM; in the experiment with MDA-MB-231 breast, 26.7 µM.

`CC1(C)CO[P@@](=S)(c2ccccn2)O[C@@H]1c1ccccc1`: the TGI in the experiment on SN12C renal, in the experiment with A549 NSCLC, with SF-295 CNS, with U251 CNS, with CAKI-1 renal and in the experiment on HL-60(TB) leukemia was greater than 100 µM in each case. Further, the TGI with NCI-H522 lung, in the experiment with MOLT-4 leukemia, in the experiment with SR leukemia, in the experiment with UACC-257 melanoma, in the experiment on 786-0 renal and in the experiment with NCI-H23 lung was greater than 100 µM throughout. For the same molecule, the TGI with IGROV1 ovarian, with OVCAR-3 ovarian, in the experiment with OVCAR-8 ovarian and with MDA-MB-231 breast was greater than 100 µM throughout.

On to `CC(=O)NC1(NC(C)=O)C2CC(C1Cc1ccccc1)C(C)(C)C2C` (centres undefined), for which the TGI in the experiment on SN12C renal, with A549 NSCLC, with SF-295 CNS, with U251 CNS, in the experiment on CAKI-1 renal and with HL-60(TB) leukemia was greater than 100 µM each time. Also, the TGI with NCI-H522 lung, in the experiment on MOLT-4 leukemia, in the experiment with SR leukemia, in the experiment on UACC-257 melanoma, in the experiment on 786-0 renal and in the experiment with NCI-H23 lung was greater than 100 µM in each case. Besides, the TGI in the experiment on IGROV1 ovarian, in the experiment with OVCAR-3 ovarian, with OVCAR-8 ovarian and in the experiment on MDA-MB-231 breast was greater than 100 µM throughout.
